# Data reported in patent publication US8247211B2, “Glycopeptide antibiotics” (American Cyanamid Company, priority 2001, dated 2012).
# Key:
# Experiment in all cases: In vitro antibacterial evaluation: minimum inhibitory concentration (MIC), broth dilution method
# Type in all cases: cell-based
# Enterococcus sp. = tested on: Enterococcus sp.
# Method in brief: (§1)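 MIC read as lowest drug level preventing visible growth. Organisms at 5×10^5 CFU/mL were exposed to a 64-0.06 μg/mL dilution series in Muller-Hinton II […] following NCCLS broth dilution standard M7-A2.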
# Staphylococcus sp. = conditions: 18 hours at 35° C.
# Method in brief: as §1
# Escherichia coli [1] = tested on: Escherichia coli
# Method in brief: as §1
# Streptococcus sp. = conditions: 18 hours at 35° C.
# Method in brief: as §1
# Escherichia coli [2] = tested on: Escherichia coli; remark: listed apart in the source
substance,measurement,setting,value
α-O-[(Benzylamino)carbonyl]-cyclo[glycyl-β-methylphenylalanyl-O-(4-O-hexopyranosylhexopyranosyl)tyrosyl-3-(2-iminoimidazolidin-4-yl)seryl-3-(3-hexopyranosyl-2-iminoimidazolidin-4-yl)serylseryl] [Example 257a],MIC Enterococcus avium (GC 4558),Enterococcus sp.; Enterococcus avium (GC 4558),>0.5 µg/mL
same,MIC Enterococcus faecalis (ATCC 29212),Enterococcus sp.; Enterococcus faecalis (ATCC 29212),>0.5 µg/mL
same,MIC Enterococcus faecalis (GC 2242),"Enterococcus sp.; Enterococcus faecalis (GC 2242), 18 hours at 35° C.",>0.5 µg/mL
same,MIC Enterococcus faecalis (GC 2691),"Enterococcus sp.; Enterococcus faecalis (GC 2691), 18 hours at 35° C.",0.5 µg/mL
same,MIC Enterococcus faecalis (GC 3059),"Enterococcus sp.; Enterococcus faecalis (GC 3059), 18 hours at 35° C.",>0.5 µg/mL
same,MIC Enterococcus faecalis (GC 4552),"Enterococcus sp.; Enterococcus faecalis (GC 4552), 18 hours at 35° C.",>0.5 µg/mL
same,MIC Enterococcus faecalis (GC 4553),Enterococcus sp.; Enterococcus faecalis (GC 4553),>0.5 µg/mL
same,MIC Enterococcus faecalis (GC 4554),Enterococcus sp.; Enterococcus faecalis (GC 4554),>0.5 µg/mL
same,MIC Enterococcus faecalis (GC 6189),Enterococcus sp.; Enterococcus faecalis (GC 6189),>0.5 µg/mL
same,MIC Enterococcus faecium (GC 2243),Enterococcus sp.; Enterococcus faecium (GC 2243),>32 µg/mL
same,MIC Enterococcus faecium (GC 4556),Enterococcus sp.; Enterococcus faecium (GC 4556),>32 µg/mL
same,MIC Enterococcus faecium (GC 4557),Enterococcus sp.; Enterococcus faecium (GC 4557),8 µg/mL
same,MIC Enterococcus faecalis (ATCC 29212),"Enterococcus sp.; broth dilution, 18 hours at 35° C., strain ATCC 29212",>0.5 µg/mL
same,MIC Enterococcus faecalis (GC 2242),"Enterococcus sp.; broth dilution, 18 hours at 35° C., strain GC 2242",>0.5 µg/mL
same,MIC Enterococcus faecium (GC 2243),"Enterococcus sp.; broth dilution, 18 hours at 35° C., strain GC 2243",>32 µg/mL
same,MIC Enterococcus faecalis (GC 2691),"Enterococcus sp.; broth dilution, 18 hours at 35° C., strain GC 2691",0.5 µg/mL
same,MIC Enterococcus faecalis (GC 3059),"Enterococcus sp.; broth dilution, 18 hours at 35° C., strain GC 3059",>0.5 µg/mL
same,MIC Enterococcus faecalis (GC 4552),"Enterococcus sp.; broth dilution, 18 hours at 35° C., strain GC 4552",>0.5 µg/mL
same,MIC Enterococcus faecalis (GC 4553),"Enterococcus sp.; broth dilution, 18 hours at 35° C., strain GC 4553",>0.5 µg/mL
same,MIC Enterococcus faecalis (GC 4554),"Enterococcus sp.; broth dilution, 18 hours at 35° C., strain GC 4554",>0.5 µg/mL
same,MIC Enterococcus faecium (GC 4556),"Enterococcus sp.; broth dilution, 18 hours at 35° C., strain GC 4556",>32 µg/mL
same,MIC Enterococcus faecium (GC 4557),"Enterococcus sp.; broth dilution, 18 hours at 35° C., strain GC 4557",8 µg/mL
same,MIC Enterococcus avium (GC 4558),"Enterococcus sp.; broth dilution, 18 hours at 35° C., strain GC 4558",>0.5 µg/mL
same,MIC Enterococcus faecalis (GC 6189),"Enterococcus sp.; broth dilution, 18 hours at 35° C., strain GC 6189",>0.5 µg/mL
same,MIC Coagulase Negative Staphylococcus (GC 4547),Staphylococcus sp.; Coagulase Negative Staphylococcus (GC 4547),8 µg/mL
same,MIC Coagulase Negative Staphylococcus (GC 4548),Staphylococcus sp.; Coagulase Negative Staphylococcus (GC 4548),8 µg/mL
same,MIC Coagulase Negative Staphylococcus (GC 4549),Staphylococcus sp.; Coagulase Negative Staphylococcus (GC 4549),8 µg/mL
same,MIC Coagulase Negative Staphylococcus (GC 4551),Staphylococcus sp.; Coagulase Negative Staphylococcus (GC 4551),32 µg/mL
same,MIC Coagulase Negative Staphylococcus (GC 6257),Staphylococcus sp.; Coagulase Negative Staphylococcus (GC 6257),4 µg/mL
same,MIC Staphylococcus aureus (ATCC 29213),Staphylococcus sp.; Staphylococcus aureus (ATCC 29213),0.5 µg/mL
same,MIC Staphylococcus aureus (GC 1131),Staphylococcus sp.; Staphylococcus aureus (GC 1131),0.5 µg/mL
same,MIC Staphylococcus aureus (GC 3051),Staphylococcus sp.; Staphylococcus aureus (GC 3051),0.5 µg/mL
same,MIC Staphylococcus aureus (GC 3053),Staphylococcus sp.; Staphylococcus aureus (GC 3053),0.5 µg/mL
same,MIC Staphylococcus aureus (GC 4541),Staphylococcus sp.; Staphylococcus aureus (GC 4541),0.5 µg/mL
same,MIC Staphylococcus aureus (GC 4542),Staphylococcus sp.; Staphylococcus aureus (GC 4542),0.5 µg/mL
same,MIC Staphylococcus aureus (GC 4544),Staphylococcus sp.; Staphylococcus aureus (GC 4544),0.5 µg/mL
same,MIC Staphylococcus aureus (GC 4545),Staphylococcus sp.; Staphylococcus aureus (GC 4545),0.5 µg/mL
same,MIC Staphylococcus aureus-SMITH (GC 4543),Staphylococcus sp.; Staphylococcus aureus-SMITH (GC 4543),0.5 µg/mL
same,MIC Staphylococcus haemolyticus (GC 4546),Staphylococcus sp.; Staphylococcus haemolyticus (GC 4546),8 µg/mL
same,MIC Staphylococcus aureus (ATCC 29213),"Staphylococcus sp.; broth dilution, strain ATCC 29213",0.5 µg/mL
same,MIC Staphylococcus aureus (GC 1131),"Staphylococcus sp.; broth dilution, strain GC 1131",0.5 µg/mL
same,MIC Staphylococcus aureus (GC 3051),"Staphylococcus sp.; broth dilution, strain GC 3051",0.5 µg/mL
same,MIC Staphylococcus aureus (GC 3053),"Staphylococcus sp.; broth dilution, strain GC 3053",0.5 µg/mL
same,MIC Staphylococcus aureus (GC 4541),"Staphylococcus sp.; broth dilution, strain GC 4541",0.5 µg/mL
same,MIC Staphylococcus aureus (GC 4542),"Staphylococcus sp.; broth dilution, strain GC 4542",0.5 µg/mL
same,MIC Staphylococcus aureus (GC 4544),"Staphylococcus sp.; broth dilution, strain GC 4544",0.5 µg/mL
same,MIC Staphylococcus aureus (GC 4545),"Staphylococcus sp.; broth dilution, strain GC 4545",0.5 µg/mL
same,MIC Escherichia coli (GC 4559),Escherichia coli [1]; Escherichia coli (GC 4559),>0.5 µg/mL
same,MIC Escherichia coli (GC 4560),Escherichia coli [1]; Escherichia coli (GC 4560),0.5 µg/mL
same,MIC Streptococcus agalactiae (GC 4564),Streptococcus sp.; Streptococcus agalactiae (GC 4564),8 µg/mL
same,MIC Streptococcus pneumoniae (ATCC 6301),Streptococcus sp.; Streptococcus pneumoniae (ATCC 6301),1 µg/mL
same,MIC Streptococcus pneumoniae (GC 1894),Streptococcus sp.; Streptococcus pneumoniae (GC 1894),1 µg/mL
same,MIC Streptococcus pneumoniae (GC 4565),Streptococcus sp.; Streptococcus pneumoniae (GC 4565),4 µg/mL
same,MIC Streptococcus pyogenes (GC 4563),Streptococcus sp.; Streptococcus pyogenes (GC 4563),0.12 µg/mL
same,MIC Streptococcus pneumoniae (ATCC 6301),"Streptococcus sp.; broth dilution, strain ATCC 6301",1 µg/mL
same,MIC Streptococcus pneumoniae (GC 1894),"Streptococcus sp.; broth dilution, strain GC 1894",1 µg/mL
same,MIC Streptococcus pyogenes (GC 4563),"Streptococcus sp.; broth dilution, strain GC 4563",0.12 µg/mL
same,MIC Streptococcus agalactiae (GC 4564),"Streptococcus sp.; broth dilution, strain GC 4564",8 µg/mL
same,MIC Streptococcus pneumoniae (GC 4565),"Streptococcus sp.; broth dilution, strain GC 4565",4 µg/mL
same,MIC Escherichia coli (ATCC 25922),Escherichia coli [2],>0.5 µg/mL
